Results taken from paper PMC5033074 (Nature chemical biology, 2016).
Like-named read-outs stand apart in the source and are kept apart here.

Key:
CDK9-cyclin T1 = CDK9-cyclin T1 (Homo sapiens, UniProt P50750); assay: radiometric in vitro kinase assay; type: biochemical; settings: compared with THZ531
[1] = test system: Pol II CTD Ser2 phosphorylation; assay: Pol II CTD phosphorylation immunoblot; type: cell-based, human; settings: Jurkat cells, 6 hrs
CDK13-cyclin K = CDK13-cyclin K (Homo sapiens, UniProt Q14004); assay: radiometric in vitro kinase assay; type: biochemical; settings: relative to THZ531
Chain of CDK13-cyclin K (Q14004 694-1039 limits assumed): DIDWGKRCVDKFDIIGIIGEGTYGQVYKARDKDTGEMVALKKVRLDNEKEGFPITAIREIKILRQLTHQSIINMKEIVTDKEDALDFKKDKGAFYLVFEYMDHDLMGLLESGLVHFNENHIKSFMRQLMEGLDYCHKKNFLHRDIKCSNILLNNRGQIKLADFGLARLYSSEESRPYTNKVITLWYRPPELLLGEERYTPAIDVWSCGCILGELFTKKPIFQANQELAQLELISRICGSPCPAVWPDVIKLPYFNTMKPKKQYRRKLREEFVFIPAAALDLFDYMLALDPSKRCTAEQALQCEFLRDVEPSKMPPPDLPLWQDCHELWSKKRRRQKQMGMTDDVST
Chain of CDK13-cyclin K (O75909 1-267 partner limits assumed): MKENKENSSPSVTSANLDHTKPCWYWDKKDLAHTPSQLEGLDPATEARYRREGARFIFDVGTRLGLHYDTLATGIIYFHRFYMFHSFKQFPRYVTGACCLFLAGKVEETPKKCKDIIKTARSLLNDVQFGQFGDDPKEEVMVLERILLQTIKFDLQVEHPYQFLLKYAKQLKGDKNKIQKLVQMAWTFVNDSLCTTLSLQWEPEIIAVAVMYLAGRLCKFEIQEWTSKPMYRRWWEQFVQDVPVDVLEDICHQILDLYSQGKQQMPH

CDK12-cyclin K = CDK12-cyclin K (Homo sapiens, UniProt Q9NYV4); type: biochemical; settings: relative to THZ531
Chain of CDK12-cyclin K (Q9NYV4 696-1082 limits assumed): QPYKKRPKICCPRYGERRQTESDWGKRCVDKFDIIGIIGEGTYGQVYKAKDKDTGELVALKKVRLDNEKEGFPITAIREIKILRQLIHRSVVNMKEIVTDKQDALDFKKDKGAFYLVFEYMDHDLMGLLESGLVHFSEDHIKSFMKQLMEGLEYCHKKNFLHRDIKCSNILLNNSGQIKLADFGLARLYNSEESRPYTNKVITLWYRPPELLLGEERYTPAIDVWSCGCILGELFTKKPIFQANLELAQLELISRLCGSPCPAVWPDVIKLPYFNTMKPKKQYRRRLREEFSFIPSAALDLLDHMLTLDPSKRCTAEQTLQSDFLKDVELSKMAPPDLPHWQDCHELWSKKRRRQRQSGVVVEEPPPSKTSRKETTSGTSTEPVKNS
Chain of CDK12-cyclin K (O75909 1-267 partner limits assumed): as the sequence (O75909 1-267 partner limits assumed) above

CDK7-cyclin H-MAT1 = CDK7-cyclin H-MAT1 (Homo sapiens, UniProt P50613); type: biochemical; settings: compared with THZ531
Chain of CDK7-cyclin H-MAT1 (P50613 whole entry): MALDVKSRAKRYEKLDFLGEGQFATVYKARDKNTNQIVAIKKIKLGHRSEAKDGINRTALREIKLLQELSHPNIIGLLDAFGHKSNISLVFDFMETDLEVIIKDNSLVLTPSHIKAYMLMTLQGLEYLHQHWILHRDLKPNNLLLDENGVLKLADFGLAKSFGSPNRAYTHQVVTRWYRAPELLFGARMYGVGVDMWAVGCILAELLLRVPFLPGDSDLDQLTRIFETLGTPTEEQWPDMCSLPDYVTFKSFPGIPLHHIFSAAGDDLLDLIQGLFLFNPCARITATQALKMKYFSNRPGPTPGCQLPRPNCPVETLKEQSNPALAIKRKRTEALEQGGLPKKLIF
Chain of CDK7-cyclin H-MAT1 (P51946 whole entry partner): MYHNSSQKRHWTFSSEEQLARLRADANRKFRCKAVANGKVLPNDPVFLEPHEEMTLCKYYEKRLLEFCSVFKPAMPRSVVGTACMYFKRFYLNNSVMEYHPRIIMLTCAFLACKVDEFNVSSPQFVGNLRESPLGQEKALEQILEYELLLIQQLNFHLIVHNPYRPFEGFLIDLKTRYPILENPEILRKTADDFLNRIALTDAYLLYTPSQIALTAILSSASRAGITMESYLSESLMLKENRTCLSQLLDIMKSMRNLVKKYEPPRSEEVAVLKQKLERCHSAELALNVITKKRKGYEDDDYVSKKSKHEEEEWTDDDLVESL
Chain of CDK7-cyclin H-MAT1 (P51948 whole entry partner): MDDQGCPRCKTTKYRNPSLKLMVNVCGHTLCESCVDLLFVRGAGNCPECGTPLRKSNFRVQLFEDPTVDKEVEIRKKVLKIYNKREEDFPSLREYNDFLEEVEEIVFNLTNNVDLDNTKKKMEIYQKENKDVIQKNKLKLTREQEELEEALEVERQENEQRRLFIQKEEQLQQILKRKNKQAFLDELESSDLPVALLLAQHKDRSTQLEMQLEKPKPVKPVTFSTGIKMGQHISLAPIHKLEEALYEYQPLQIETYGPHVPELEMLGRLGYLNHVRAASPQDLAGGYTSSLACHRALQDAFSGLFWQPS

[2] = test system: steady-state mRNA levels in Jurkat cells; assay: gene expression analysis; type: cell-based, human; settings: for effect on steady-state mRNA levels: 500 nM, 6h
[3] = test system: Jurkat T-cell acute lymphoblastic leukemia cells; assay: Jurkat proliferation assay; type: cell-based, human; settings: for antiproliferative activity in Jurkat cells: 72 hrs, CellTiter Glo
[4] = test system: CDK12-cyclin K, CDK13-cyclin K and CDK7-cyclin H complexes; settings: 1 µM biotinylated probe
HAP1 cells = assay: HAP1 WT vs CDK12 C1039S proliferation assay; type: cell-based, human; settings: 72 hours
Jurkat cells = assay: Annexin V / propidium iodide flow cytometry; type: cell-based, human
CDK12-cyclin K complexes = CDK12-cyclin K complexes (Homo sapiens, UniProt Q9NYV4); assay: target-engagement assay; type: cell-based; settings: competition with lysate-introduced bioTHZ1
ERK1 = ERK1 (Homo sapiens, UniProt P27361); assay: kinase assay, control kinase; type: biochemical
Chain of ERK1 (P27361 whole entry, species assumed): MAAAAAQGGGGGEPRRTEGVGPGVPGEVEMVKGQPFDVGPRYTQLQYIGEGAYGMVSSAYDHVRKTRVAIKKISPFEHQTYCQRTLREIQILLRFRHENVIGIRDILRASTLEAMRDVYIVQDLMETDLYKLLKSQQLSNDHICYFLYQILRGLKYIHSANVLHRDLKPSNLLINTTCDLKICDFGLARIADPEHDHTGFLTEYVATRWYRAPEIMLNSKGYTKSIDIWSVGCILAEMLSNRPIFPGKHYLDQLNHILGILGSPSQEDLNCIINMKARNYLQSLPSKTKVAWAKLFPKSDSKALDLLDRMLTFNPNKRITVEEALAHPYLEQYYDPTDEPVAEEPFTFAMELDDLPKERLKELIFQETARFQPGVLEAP

CDK12- cyclin K complex = CDK12- cyclin K complex (Homo sapiens, UniProt Q9NYV4); assay: mass spectrometry of protein-inhibitor complex; type: binding; settings: 17 µM complex, 25 µM compound, overnight at 4°C
Chain of CDK12- cyclin K complex (Q9NYV4 715-1052, one chain of several): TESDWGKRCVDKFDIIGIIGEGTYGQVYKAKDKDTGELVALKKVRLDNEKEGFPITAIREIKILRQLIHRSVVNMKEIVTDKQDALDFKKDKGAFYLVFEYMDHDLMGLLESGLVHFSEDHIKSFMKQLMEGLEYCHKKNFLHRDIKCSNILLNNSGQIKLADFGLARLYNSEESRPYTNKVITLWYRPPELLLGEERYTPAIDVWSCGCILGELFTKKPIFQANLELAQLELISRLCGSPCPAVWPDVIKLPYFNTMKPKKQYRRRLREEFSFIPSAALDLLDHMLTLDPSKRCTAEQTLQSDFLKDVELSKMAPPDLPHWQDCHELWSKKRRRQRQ

CDK13 = CDK13 (Homo sapiens, UniProt Q14004); assay: Ambit in vitro binding profiling
Chain of CDK13 (Q14004 whole entry): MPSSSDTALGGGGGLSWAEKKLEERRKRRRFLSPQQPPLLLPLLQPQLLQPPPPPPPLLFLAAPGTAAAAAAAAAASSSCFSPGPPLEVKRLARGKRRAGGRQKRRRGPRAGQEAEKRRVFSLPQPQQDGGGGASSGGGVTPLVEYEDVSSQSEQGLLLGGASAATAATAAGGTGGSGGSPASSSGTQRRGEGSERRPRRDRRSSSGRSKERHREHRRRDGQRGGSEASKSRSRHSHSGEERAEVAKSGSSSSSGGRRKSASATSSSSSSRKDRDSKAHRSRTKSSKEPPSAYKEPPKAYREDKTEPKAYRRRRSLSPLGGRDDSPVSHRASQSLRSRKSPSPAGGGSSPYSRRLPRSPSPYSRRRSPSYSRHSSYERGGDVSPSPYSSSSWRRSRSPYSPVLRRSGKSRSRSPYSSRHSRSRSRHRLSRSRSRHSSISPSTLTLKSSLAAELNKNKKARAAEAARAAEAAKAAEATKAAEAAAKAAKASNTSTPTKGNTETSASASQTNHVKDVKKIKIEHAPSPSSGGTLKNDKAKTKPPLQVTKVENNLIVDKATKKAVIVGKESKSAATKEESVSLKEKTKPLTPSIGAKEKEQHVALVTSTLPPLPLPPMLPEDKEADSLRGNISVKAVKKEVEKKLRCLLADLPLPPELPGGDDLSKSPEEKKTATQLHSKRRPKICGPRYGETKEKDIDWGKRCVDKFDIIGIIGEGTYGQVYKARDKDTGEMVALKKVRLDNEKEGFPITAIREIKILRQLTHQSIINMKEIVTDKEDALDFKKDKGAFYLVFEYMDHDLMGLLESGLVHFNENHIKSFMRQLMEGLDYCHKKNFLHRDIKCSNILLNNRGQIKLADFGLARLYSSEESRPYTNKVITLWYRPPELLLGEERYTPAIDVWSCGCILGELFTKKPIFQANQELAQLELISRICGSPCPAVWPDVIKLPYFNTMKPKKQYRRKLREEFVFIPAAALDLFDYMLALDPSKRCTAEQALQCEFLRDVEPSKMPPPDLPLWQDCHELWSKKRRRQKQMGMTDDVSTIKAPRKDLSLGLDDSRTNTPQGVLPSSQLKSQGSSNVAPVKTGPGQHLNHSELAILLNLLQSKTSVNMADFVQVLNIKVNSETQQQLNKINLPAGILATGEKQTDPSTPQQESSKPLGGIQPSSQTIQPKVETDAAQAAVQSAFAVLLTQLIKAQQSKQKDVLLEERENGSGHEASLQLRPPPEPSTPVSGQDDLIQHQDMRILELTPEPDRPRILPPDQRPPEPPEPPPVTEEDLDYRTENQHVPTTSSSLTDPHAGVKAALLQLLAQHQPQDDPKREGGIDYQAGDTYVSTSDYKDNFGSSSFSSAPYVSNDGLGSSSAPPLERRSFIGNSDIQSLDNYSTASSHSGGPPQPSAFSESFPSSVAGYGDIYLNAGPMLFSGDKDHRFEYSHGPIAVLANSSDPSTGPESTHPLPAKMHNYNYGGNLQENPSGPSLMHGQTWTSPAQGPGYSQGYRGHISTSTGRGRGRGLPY

other 211 kinases = assay: KiNativ intracellular kinase profiling; settings: ATP-desthiobiotin probe
[5] = test system: pSer2 Pol II occupancy in Jurkat cells; assay: pSer2 Pol II ChIP-seq; type: cell-based, human
[6] = test system: Pol II CTD Ser2 phosphorylation; settings: cited from earlier work
[7] = target: human CDK12 residues 715-1052 (human, UniProt Q9NYV4-1 715-1052, THZ531 covalently bound to Cys-1039; phosphorylated (site not stated)); assay: crystal structure
Chain of human CDK12 residues 715-1052 (Q9NYV4 715-1052): as the sequence (Q9NYV4 715-1052, one chain of several) above

Chain of CDK9-cyclin T1 (P50750 whole entry): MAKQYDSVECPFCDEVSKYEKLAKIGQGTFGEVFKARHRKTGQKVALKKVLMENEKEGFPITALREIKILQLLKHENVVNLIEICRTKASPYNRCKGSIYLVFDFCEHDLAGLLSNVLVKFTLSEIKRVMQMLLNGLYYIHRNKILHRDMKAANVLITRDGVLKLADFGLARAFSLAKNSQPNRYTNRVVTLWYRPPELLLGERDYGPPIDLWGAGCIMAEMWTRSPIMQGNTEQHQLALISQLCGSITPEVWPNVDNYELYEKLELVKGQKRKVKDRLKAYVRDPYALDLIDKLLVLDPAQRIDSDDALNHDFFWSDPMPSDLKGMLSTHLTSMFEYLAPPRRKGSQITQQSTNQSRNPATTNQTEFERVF
Chain of CDK9-cyclin T1 (O60563 1-272 partner limits assumed): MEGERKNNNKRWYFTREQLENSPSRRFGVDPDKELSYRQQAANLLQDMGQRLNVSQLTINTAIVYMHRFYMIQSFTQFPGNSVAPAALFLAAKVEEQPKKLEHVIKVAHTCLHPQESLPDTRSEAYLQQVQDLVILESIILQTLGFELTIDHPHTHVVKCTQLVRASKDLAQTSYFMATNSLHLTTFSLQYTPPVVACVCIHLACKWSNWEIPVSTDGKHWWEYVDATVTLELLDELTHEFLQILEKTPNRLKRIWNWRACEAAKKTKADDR

## CN(C)CCCC(=O)Nc1ccc(C(=O)N2CCC[C@@H](Nc3ncc(Cl)c(-c4c[nH]c5ccccc45)n3)C2)cc1 [THZ531R, (R)-N-(4-(3-((5-chloro-4-(1H-indol-3-yl)pyrimidin-2-yl)amino)piperidine-1-carbonyl)phenyl)-4-(dimethylamino)butanamide]
CDK9-cyclin T1
  inhibition activity on CDK9: similarly–low–inhibition activity
[1]
  effect on Pol II CTD phosphorylation: decreased neither Ser2 phosphorylation
CDK13-cyclin K
  fold less active on CDK13 than THZ531: 50–100 fold
CDK13-cyclin K; listed as reversible analog
  fold less active on CDK13 than THZ531: more than 100 fold
CDK12-cyclin K
  fold less active on CDK12 than THZ531: 50–100 fold
CDK12-cyclin K; listed as reversible analog
  fold less active on CDK12 than THZ531: more than 100 fold
CDK7-cyclin H-MAT1
  inhibition activity on CDK7: similarly–low–inhibition activity
[2]
  effect on steady-state mRNA levels: decreased neither Ser2 phosphorylation nor steady-state mRNA levels
[3]
  antiproliferative activity in Jurkat cells: minimal antiproliferative activity

## CC1NC(=O)NC1CCCCCC(=O)NCCOCCOCCOCCNC(=O)CCN(C)C/C=C/C(=O)Nc1ccc(C(=O)N2CCC[C@@H](Nc3ncc(Cl)c(-c4c[nH]c5ccccc45)n3)C2)cc1 (stereo partly drawn) [bioTHZ531, N-((E)-20-((4-((R)-3-((5-chloro-4-(1H-indol-3-yl)pyrimidin-2-yl)amino)piperidine-1-carbonyl)phenyl)amino)-16-methyl-13,20-dioxo-3,6,9-trioxa-12,16-diazaicos-18-en-1-yl)-6-(5-methyl-2-oxoimidazolidin-4-yl)hexanamide]
[4]
  complexes pulled down: pulls down CDK12-cyclin K and CDK13-cyclin K complexes, but not CDK7-cyclin H complexes

## CN(C)C/C=C/C(=O)Nc1ccc(C(=O)N2CCC[C@@H](Nc3ncc(Cl)c(-c4c[nH]c5ccccc45)n3)C2)cc1 [THZ531, (R,E)-N-(4-(3-((5-chloro-4-(1H-indol-3-yl)pyrimidin-2-yl)amino)piperidine-1-carbonyl)phenyl)-4-(dimethylamino)but-2-enamide]
HAP1 cells
  effect of CDK12 C1039S substitution on antiproliferative effect: partial restoration of cellular proliferation
Jurkat cells; 50 nM, time course of the experiment
  percentage of apoptotic cells over DMSO control: no increase in the percentage of apoptotic cells
Jurkat cells; higher doses (above 50 nM), by 72 hrs
  annexin V-positively stained cells: 30–40%
[1]
  effect on Pol II CTD phosphorylation: selectively reduced Ser2 phosphorylation levels without appreciable effect on CTD pSer5/pSer7 levels
CDK12-cyclin K complexes
  binding to intracellular CDK12-cyclin K vs CDK7-cyclin H: binds intracellular CDK12-cyclin K complexes with higher affinity than CDK7-cyclin H complexes
ERK1
  inhibitory effect on ERK1: no appreciable inhibitory effect
CDK12- cyclin K complex
  covalent binding to CDK12-cyclin K: Near complete covalent binding
CDK13
  Ambit profiling score of CDK13: among the top scoring kinases
Other 211 kinases
  labeling of the other 211 kinases (not CDK12 and 13): ≤ 55%
[2]; 50 nM
  expression of core DDR genes BRCA1, FANCF, ERCC4: substantial loss of expression
[5]; 50 nM
  pSer2 ChIP-seq signal: did not appreciably change pSer2 ChIP-seq signal
[5]; 500 nM
  pSer2 ChIP-seq signal: dramatic decrease in 3’ end –associated pSer2 ChIP-seq signal
[3]; Homo sapiens, Jurkat, 72 h, read-out: IC50 Jurkat cell proliferation
  IC50: 50 nM

## CN(C)C/C=C/C(=O)Nc1ccc(C(=O)Nc2cccc(Nc3ncc(Cl)c(-c4c[nH]c5ccccc45)n3)c2)cc1 [THZ1]
[6]
  effect on Pol II CTD phosphorylation: complete loss of Pol II CTD phosphorylation

## CN(C/C=C/C(=O)Nc1ccc(C(=O)Nc2cccc(Nc3ncc(Cl)c(-c4c[nH]c5ccccc45)n3)c2)cc1)CCCNC(=O)NCCOCCOCCOCCNC(=O)CCCC[C@@H]1SC[C@@H]2NC(=O)N[C@@H]21 [bioTHZ1, reference compound]
[4]
  complexes pulled down: pulls down CDK7, CDK12, and 13 complexes

## CN(C)C/C=C/C(=O)Nc1ccc(C(=O)N2CCC[C@H](Nc3ncc(Cl)c(-c4c[nH]c5ccccc45)n3)C2)cc1 [THZ532, (S,E)-N-(4-(3-((5-chloro-4-(1H-indol-3-yl)pyrimidin-2-yl)amino)piperidine-1-carbonyl)phenyl)-4-(dimethylamino)but-2-enamide]
CDK9-cyclin T1
  inhibition activity on CDK9: similarly–low–inhibition activity
[1]
  effect on Pol II CTD phosphorylation: decreased neither Ser2 phosphorylation
CDK7-cyclin H-MAT1
  inhibition activity on CDK7: similarly–low–inhibition activity
[2]
  effect on steady-state mRNA levels: decreased neither Ser2 phosphorylation nor steady-state mRNA levels
[3]
  antiproliferative activity in Jurkat cells: minimal antiproliferative activity

B1: human cyclin K residues 11-267 (domain or fragment, UniProt O75909 11-267, looked up)
chain: SVTSANLDHTKPCWYWDKKDLAHTPSQLEGLDPATEARYRREGARFIFDVGTRLGLHYDTLATGIIYFHRFYMFHSFKQFPRYVTGACCLFLAGKVEETPKKCKDIIKTARSLLNDVQFGQFGDDPKEEVMVLERILLQTIKFDLQVEHPYQFLLKYAKQLKGDKNKIQKLVQMAWTFVNDSLCTTLSLQWEPEIIAVAVMYLAGRLCKFEIQEWTSKPMYRRWWEQFVQDVPVDVLEDICHQILDLYSQGKQQMPH
[7]
  binding result: binds
